Paper PMC11643494, “Structure–Activity Relationship Studies in a Series of 2-Aryloxy-N-(pyrimidin-5-yl)acetamide Inhibitors of SLACK Potassium Channels” (Molecules, 2024)

Target: T1, Human A934T SLACK (Homo sapiens, UniProt Q5JUK3, A915T)
T1 construct: host or cells: CHO-K1
T1 sequence (Q5JUK3 1-1235 isoform Q5JUK3-3 A934T): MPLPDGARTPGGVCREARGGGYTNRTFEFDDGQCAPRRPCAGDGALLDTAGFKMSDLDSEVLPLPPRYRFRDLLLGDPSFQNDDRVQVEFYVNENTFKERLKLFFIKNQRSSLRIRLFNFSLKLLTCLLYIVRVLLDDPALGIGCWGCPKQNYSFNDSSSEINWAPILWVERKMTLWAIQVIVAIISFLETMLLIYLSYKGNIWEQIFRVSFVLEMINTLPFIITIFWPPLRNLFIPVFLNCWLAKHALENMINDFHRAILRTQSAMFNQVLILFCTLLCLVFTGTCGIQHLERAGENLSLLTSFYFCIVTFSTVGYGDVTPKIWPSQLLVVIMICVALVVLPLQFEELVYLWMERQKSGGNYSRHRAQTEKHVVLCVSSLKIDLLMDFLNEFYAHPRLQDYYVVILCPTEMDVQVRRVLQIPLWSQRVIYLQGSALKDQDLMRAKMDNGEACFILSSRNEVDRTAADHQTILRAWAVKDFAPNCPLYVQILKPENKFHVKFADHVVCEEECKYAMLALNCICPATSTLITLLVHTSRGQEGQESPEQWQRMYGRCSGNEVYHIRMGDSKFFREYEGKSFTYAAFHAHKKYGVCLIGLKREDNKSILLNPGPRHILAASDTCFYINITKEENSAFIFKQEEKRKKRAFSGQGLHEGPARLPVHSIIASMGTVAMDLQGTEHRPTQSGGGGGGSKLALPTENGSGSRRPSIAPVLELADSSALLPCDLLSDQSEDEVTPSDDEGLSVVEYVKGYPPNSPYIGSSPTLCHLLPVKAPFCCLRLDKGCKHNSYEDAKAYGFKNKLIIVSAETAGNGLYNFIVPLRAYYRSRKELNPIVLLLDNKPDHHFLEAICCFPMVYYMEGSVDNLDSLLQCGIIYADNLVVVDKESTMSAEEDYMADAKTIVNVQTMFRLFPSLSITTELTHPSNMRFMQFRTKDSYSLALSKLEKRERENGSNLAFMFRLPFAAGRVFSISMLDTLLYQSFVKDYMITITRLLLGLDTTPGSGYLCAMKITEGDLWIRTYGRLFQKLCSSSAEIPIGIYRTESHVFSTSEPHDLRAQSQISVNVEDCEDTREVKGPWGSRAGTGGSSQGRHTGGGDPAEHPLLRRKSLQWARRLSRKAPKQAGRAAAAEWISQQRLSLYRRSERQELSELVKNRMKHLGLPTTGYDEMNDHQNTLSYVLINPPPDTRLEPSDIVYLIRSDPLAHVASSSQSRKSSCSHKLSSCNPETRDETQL
Experiment: Whole-cell APC in CHO-K1 cells stably expressing human A934T SLACK
Assay type: cell-based
Conditions: for IC50: APC, CHO-K1 cells; for Imax: maximum inhibition at 30 µM standardized to VU0606170 (set at 100%)
Source text: Finally, we chose to screen the same two compounds versus mouse SLACK and two clinically relevant GOF SLACK mutants in APC assays utilizing CHO-K1 cells stably expressing these targets (Table 7). Screening versus the mouse homolog was deemed important for evaluating the potential of the series to ultimately lead to a useful in vivo tool via further optimization.
Stably transfected monoclonal HEK293 cell lines expressing SLICK, Maxi-K α1/β3, Maxi-K α1/β4, CaV3.2, GIRK 1/2, KV2.1, KV7.2, NaV1.7, and TASK-1 were generated as previously described. Stably transfected monoclonal HEK293 cell lines expressing hERG were generated as previously described. CHO-K1 cells expressing human SLACK and disease-associated human SLACK mutations, G288S and A934T, were generated by transfecting a PiggyBac TRE mammalian expression vector (VectorBuilder, Chicago, IL, USA) containing KCNT1. FuGENE 6 (Promega, Madison, WI, USA) transfection reagent and protocol, together with Opti-MEM (Thermo Fisher Scientific, Waltham, MA, USA), were utilized according to the manufacturer’s instructions.
Automated patch clamp recording was performed with a SyncroPatch 768 PE system (Nanion, Munich, Germany) as previously described. Whole-cell recordings were performed at room temperature. Cells were harvested by first washing with PBS without Mg^2+ or Ca^2+ (Gibco, Billings, MT, USA) to remove cell culture medium, followed by dissociation with TryPLE (Gibco, Billings, MT, USA). Cells were then resuspended and diluted to 200,000 cells/mL in external solution. External solution contained 105 mM NaCl, 4 mM KCl, 1 mM MgCl2, 5 mM CaCl2, 10 mM HEPES, 40 mM N-Methyl-D-glucamine chloride, titrated to pH 7.4 with NaOH and osmolarity of 300 mOsm/kg; internal solution contained 70 mM NaCl, 70 mM KF, 10 mM KCl, 5 mM EGTA, 5mM HEPES, titrated to a pH 7.2 with KOH and osmolarity of 295 mOsm/kg.
The APC protocol was set as following: Cells were held at […] −80 mV for 100 ms, then a ramp protocol was performed from −100 mV to 80 mV at 0.4 mV/ms, hold the cell at −80 mV for another 100 ms, then steps were performed at −20 mV, 0 mV, +20 mV, +40 mV, and +60 mV for 100 ms of each step. Whole-cell currents were measured at 0 mV and normalized to current after external buffer addition.

SMILES | IC50 | Imax
CC(C)(Oc1ccc(Cl)cc1)C(=O)Nc1cnc(Oc2c(F)cccc2F)nc1 [Analog 40] | 410 nM | 96%
CN(c1ccc(C#N)cc1)c1ncc(NC(=O)C(C)(C)Oc2ccc(Cl)cc2)cn1 [Analog 66] | 1200 nM | 84%
